Measurements reported in patent US12391686B2, “Compounds and uses thereof” (Foghorn Therapeutics Inc., priority 2019, dated 2025).
Read-outs that look alike come from different tables or passages of the source.

Biological target: T1, Nanoluciferase-BRD9 fusion protein (3×FLAG-NLuc-BRD9) in SYO-1 cells (Homo sapiens, UniProt Q9H8M2)
T1 construct: expressed in transfected cells; host or cells: SYO-1
T1 sequence (Q9H8M2 1-597): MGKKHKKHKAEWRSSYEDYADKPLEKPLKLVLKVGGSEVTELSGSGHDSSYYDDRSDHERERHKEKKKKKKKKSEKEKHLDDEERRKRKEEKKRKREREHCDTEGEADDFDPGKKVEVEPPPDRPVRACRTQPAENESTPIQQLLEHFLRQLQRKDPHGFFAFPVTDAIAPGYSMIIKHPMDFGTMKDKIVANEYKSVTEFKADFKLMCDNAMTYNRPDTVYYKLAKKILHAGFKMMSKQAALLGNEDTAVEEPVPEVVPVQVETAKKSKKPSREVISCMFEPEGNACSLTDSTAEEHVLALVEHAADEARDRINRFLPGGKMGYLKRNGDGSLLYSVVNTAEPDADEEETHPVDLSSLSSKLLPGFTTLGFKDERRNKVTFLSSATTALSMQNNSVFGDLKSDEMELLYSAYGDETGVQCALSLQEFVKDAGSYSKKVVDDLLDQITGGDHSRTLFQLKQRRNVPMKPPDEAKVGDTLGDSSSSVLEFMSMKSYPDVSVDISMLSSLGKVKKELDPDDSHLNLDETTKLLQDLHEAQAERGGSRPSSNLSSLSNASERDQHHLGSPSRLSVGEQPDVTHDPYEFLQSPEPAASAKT
Experiment: SYO1 BRD9 NanoLuc Degradation Assay
Type: cell-based
Details: SYO-1 cells expressing 3×FLAG-NLuc-BRD9, 6 hours incubation, 1 μM top dose, read-out: SYO1 BRD9-NanoLuc degradation IC50
In short: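 NanoLuc signal, read by Nano-Glo luminescence after 6 h compound exposure, gives % inhibition against DMSO-treated cells (high control) and cells given 1 μM of a standard BRD9 degrader (low control). Test compounds ran as 10-point 3-fold series, top 1 μM final, in duplicate on SYO-1 cells stably expressing 3×FLAG-NLuc-BRD9.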

DC50 (Table 6B) [µM]	DC50 (Table 6C) [µM]	SMILES
< 0.01		CNc1cc2c(=O)n(C)cc(-c3cc(OC)c(CN(C)CC45CC(C(=O)NCCCCCOc6ccc7c(c6)C(=O)N(C6CCC(=O)NC6=O)C7=O)(C4)C5)c(OC)c3)c2cn1 (centres unmarked) [Compound D173]
< 0.01		CCc1cc(-c2cn(C)c(=O)c3cnc(N(C)C)cc23)cc(OC)c1CN1CCC(CN2CCC3(CC2)CC(Oc2ccc4c(c2)C(=O)N(C2CCC(=O)NC2=O)C4=O)C3)CC1 (centres unmarked) [Compound D174]
≥ 1		COc1cc(-c2cn(C)c(=O)c3cnc(OC(F)F)cc23)cc(OC)c1CN1CC(CN2CCC3(CC2)CN(c2ccc4c(c2)C(=O)N(C2CCC(=O)NC2=O)C4)C3)C1 (centres unmarked) [Compound D175]
< 0.01		COc1cc(-c2cn(C)c(=O)c3ccc(N4CCC4)cc23)cc(OC)c1CN1CCC(N2CCN(c3ccc4c(c3)CN(C3CCC(=O)NC3=O)C4=O)CC2)CC1 (centres unmarked) [Compound D176]
< 0.01		COc1cc(-c2cn(C)c(=O)c3cnc(N4CCC4)cc23)cc(OC)c1CN1CC(N2CCC(c3ccc4c(c3)CN(C3CCC(=O)NC3=O)C4=O)CC2)C1 (centres unmarked) [Compound D177]
< 0.01		COc1cc(-c2cn(C)c(=O)c3cnc(N4CCOCC4)cc23)cc(OC)c1CN1CCC(CN2CCC3(CC2)CC(Oc2ccc4c(c2)C(=O)N(C2CCC(=O)NC2=O)C4=O)C3)CC1 (centres unmarked) [Compound D178]
≥ 1		COc1cc(-c2cn(C)c(=O)c3cnc(N4CCC4)cc23)cc(OC)c1CN1CC(N2CCC(c3ccc4c(c3)C(=O)N(C3CCC(=O)NC3=O)C4)CC2)C1 (centres unmarked) [Compound D179]
≥ 1		COc1cc(-c2cn(C)c(=O)c3ccc(N4CCC4)cc23)cc(OC)c1CN1CCC(C2CCN(c3ccc4c(c3)CN(C3CCC(=O)NC3=O)C4=O)CC2)CC1 (centres unmarked) [Compound D181]
< 0.01		COc1cc(-c2cn(C)c(=O)c3cnc(N4CCC4)nc23)cc(OC)c1CN1CCC(CN2CCC3(CC2)CC(Oc2ccc4c(c2)CN(C2CCC(=O)NC2=O)C4=O)C3)CC1 (centres unmarked) [Compound D182]
≥ 1		COc1cc(-c2cn(C)c(=O)c3ccc(N4CCC4)cc23)cc(OC)c1CN1CCC(N2CCC(c3ccc4c(c3)CN(C3CCC(=O)NC3=O)C4=O)CC2)CC1 (centres unmarked) [Compound D183]
< 0.01		COc1cc2c(-c3cc(OC)c(CN4CC(CN5CCC6(CC5)CN(c5ccc7c(c5)C(=O)N(C5CCC(=O)NC5=O)C7)C6)C4)c(OC)c3)cn(C)c(=O)c2cn1 (centres unmarked) [Compound D184]
	< 0.01	COc1cc(-c2cn(C)c(=O)c3cnc(N4CCC4)cc23)cc(OC)c1CN1CC(C(C)(C)N2CCC3(CC2)CN(c2ccc4c(c2)CN(C2CCC(=O)NC2=O)C4=O)C3)C1 (centres unmarked) [Compound D185]
	< 0.01	COc1cc(-c2cn(C)c(=O)c3cnc(C(F)(F)F)cc23)cc(OC)c1CN1CC(CN2CCC3(CC2)CN(c2ccc4c(c2)C(=O)N(C2CCC(=O)NC2=O)C4)C3)C1 (centres unmarked) [Compound D186]
	< 0.01	COc1cc(-c2cn(C)c(=O)c3cnc(N4CCC4)cc23)cc(OC)c1CN1CCC(CN2CCC3(CC2)CC(Oc2ccc4c(c2)C(=O)N(C2CCC(=O)NC2=O)C4)C3)CC1 (centres unmarked) [Compound D187]
	< 0.01	COc1cc(-c2cn(C)c(=O)c3cnc(S(N)(=O)=O)cc23)cc(OC)c1CN1CCC(CN2CCC3(CC2)CC(Oc2ccc4c(c2)C(=O)N(C2CCC(=O)NC2=O)C4)C3)CC1 (centres unmarked) [Compound D188]
	< 0.01	COc1cc(-c2cn(C)c(=O)c3cnc(N(C)C)cc23)cc(Cl)c1C(=O)N1CCN(CCC2CCN(c3ccc4c(c3)CN(C3CCC(=O)NC3=O)C4=O)CC2)CC1 (centres unmarked) [Compound D189]
	< 0.01	COc1cc(-c2cn(C)c(=O)c3cnc(C(C)(C)CO)cc23)cc(OC)c1CN1CCC(CN2CCC3(CC2)CC(Oc2ccc4c(c2)C(=O)N(C2CCC(=O)NC2=O)C4)C3)CC1 (centres unmarked) [Compound D190]
	0.1 to 1	COc1cc(-c2nn(C)c(=O)c3cnc(N4CCC4)cc23)cc(OC)c1CN1CCC(CN2CCC3(CC2)CC(Oc2ccc4c(c2)C(=O)N(C2CCC(=O)NC2=O)C4)C3)CC1 (centres unmarked) [Compound D191]
	< 0.01	COc1cc(-c2cn(C)c(=O)c3cnc(N4CCC4)cc23)cc(OC)c1CN1CC(C(C)(C)N2CCC3(CC2)CN(c2ccc4c(c2)C(=O)N(C2CCC(=O)NC2=O)C4)C3)C1 (centres unmarked) [Compound D192]
	< 0.01	COc1cc(-c2cn(C)c(=O)c3cnc(C4CC4)cc23)cc(OC)c1CN1CC(CN2CCC3(CC2)CN(c2ccc4c(c2)C(=O)N(C2CCC(=O)NC2=O)C4)C3)C1 (centres unmarked) [Compound D193]
	< 0.01	COc1cc(-c2cn(C)c(=O)c3cnc(N4CCOCC4)cc23)cc(OC)c1CN1CCC(CN2CCC3(CC2)CC(Oc2ccc4c(c2)C(=O)N(C2CCC(=O)NC2=O)C4)C3)CC1 (centres unmarked) [Compound D194]

DC50 (Table 6B) [µM]	DC50 (Table 6C) [µM]	SMILES
	< 0.01	COc1cc(-c2cn(C)c(=O)c3cnc(C4CC4)cc23)cc(OC)c1CN1CCC(C(N2CCC3(CC2)CC(Oc2ccc4c(c2)C(=O)N(C2CCC(=O)NC2=O)C4=O)C3)C(F)(F)F)CC1 (centres unmarked) [Compound D195]
	< 0.01	COc1cc(-c2cn(C)c(=O)c3cnc(N4CCOCC4)cc23)cc(OC)c1CN1CCC(C(N2CCC3(CC2)CC(Oc2ccc4c(c2)C(=O)N(C2CCC(=O)NC2=O)C4=O)C3)C(F)(F)F)CC1 (centres unmarked) [Compound D196]
	< 0.01	[2H]C([2H])([2H])N(c1cc2c(-c3cc(OC)c(CN4CCN(CCC5CCN(c6ccc7c(c6)C(=O)N(C6CCC(=O)NC6=O)C7)CC5)CC4)c(OC)c3)cn(C)c(=O)c2cn1)C([2H])([2H])[2H] (centres unmarked) [Compound D197]
	< 0.01	[2H]C([2H])([2H])Oc1cc2c(-c3cc(OC)c(CN4CCN(CCC5CCN(c6ccc7c(c6)C(=O)N(C6CCC(=O)NC6=O)C7)CC5)CC4)c(OC)c3)cn(C)c(=O)c2cn1 (centres unmarked) [Compound D198]
	< 0.01	COc1cc2c(-c3cc(OC)c(CN4CCC(CCN5CCC6(CC5)CN(c5ccc7c(c5)C(=O)N(C5CCC(=O)NC5=O)C7)C6)CC4)c(OC)c3)cn(C)c(=O)c2cn1 (centres unmarked) [Compound D199]
	< 0.01	COc1cc(-c2cn(C)c(=O)c3cnc(N4CC(F)C4)cc23)cc(OC)c1CN1CC(CN2CCC3(CC2)CN(c2ccc4c(c2)C(=O)N(C2CCC(=O)NC2=O)C4)C3)C1 (centres unmarked) [Compound D200]
	< 0.01	COc1cc(-c2cn(C)c(=O)c3cnc(N4CC5(CC5)C4)cc23)cc(OC)c1CN1CC(CN2CCC3(CC2)CN(c2ccc4c(c2)C(=O)N(C2CCC(=O)NC2=O)C4)C3)C1 (centres unmarked) [Compound D201]
	< 0.01	COc1cc(-c2cn(C)c(=O)c3cnc(N4CCC4)cc23)cc(OC)c1CN(C)c1ccc2c(c1)CN(C1CCC(=O)NC1=O)C2=O (centres unmarked) [Compound D202]
	< 0.01	CCOC1CC1c1cc2c(-c3cc(OC)c(CN4CCN(CCC5CCN(c6ccc7c(c6)C(=O)N(C6CCC(=O)NC6=O)C7)CC5)CC4)c(OC)c3)cn(C)c(=O)c2cn1 (centres unmarked) [Compound D203]
	< 0.01	CCOC1CC1c1cc2c(-c3cc(OC)c(CN4CCN(CCC5CCN(c6ccc7c(c6)C(=O)N(C6CCC(=O)NC6=O)C7=O)CC5)CC4)c(OC)c3)cn(C)c(=O)c2cn1 (centres unmarked) [Compound D204]
	0.01 to 0.1	COc1cc(-c2cn(C)c(=O)c3cnc(N4CC5(CC5)C4)cc23)cc(OC)c1CN1CCC(CN2CCC3(CC2)CN(c2ccc4c(c2)C(=O)N(C2CCC(=O)NC2=O)C4)C3)CC1 (centres unmarked) [Compound D205]
	< 0.01	COc1cc(-c2cn(C)c(=O)c3cnc(N4CC(F)C4)cc23)cc(OC)c1CN1CCC(CN2CCC3(CC2)CN(c2ccc4c(c2)C(=O)N(C2CCC(=O)NC2=O)C4)C3)CC1 (centres unmarked) [Compound D206]
	< 0.01	COc1cc(-c2cn(C)c(=O)c3cnc(N4CC[C@@H]4C)cc23)cc(OC)c1CN1CCC(CN2CCC3(CC2)CN(c2ccc4c(c2)C(=O)N(C2CCC(=O)NC2=O)C4)C3)CC1 (some centres unmarked) [Compound D207]
	< 0.01	COc1cc(-c2cn(C)c(=O)c3cnc(N4CC[C@H]4C)cc23)cc(OC)c1CN1CCC(CN2CCC3(CC2)CN(c2ccc4c(c2)C(=O)N(C2CCC(=O)NC2=O)C4)C3)CC1 (some centres unmarked) [Compound D208]
	< 0.01	COc1cc(-c2cn(C)c(=O)c3cnc(N4CC(C)(OC)C4)cc23)cc(OC)c1CN1CCC(CN2CCC3(CC2)CN(c2ccc4c(c2)C(=O)N(C2CCC(=O)NC2=O)C4)C3)CC1 (centres unmarked) [Compound D209]
	< 0.01	COc1cc(-c2cn(C)c(=O)c3cnc(N4CC(C)(OC)C4)cc23)cc(OC)c1CN1CC(CN2CCC3(CC2)CN(c2ccc4c(c2)C(=O)N(C2CCC(=O)NC2=O)C4)C3)C1 (centres unmarked) [Compound D210]
	< 0.01	COc1cc(-c2cn(C)c(=O)c3cnc(N4CC(F)(F)C4)cc23)cc(OC)c1CN1CC(CN2CCC3(CC2)CN(c2ccc4c(c2)C(=O)N(C2CCC(=O)NC2=O)C4)C3)C1 (centres unmarked) [Compound D211]
	< 0.01	COc1cc(-c2cn(C)c(=O)c3cnc(N4CC[C@H]4C)cc23)cc(OC)c1CN1CC(CN2CCC3(CC2)CN(c2ccc4c(c2)C(=O)N(C2CCC(=O)NC2=O)C4)C3)C1 (some centres unmarked) [Compound D212]
	< 0.01	COc1cc(-c2cn(C)c(=O)c3cnc(N4CC[C@@H]4C)cc23)cc(OC)c1CN1CC(CN2CCC3(CC2)CN(c2ccc4c(c2)C(=O)N(C2CCC(=O)NC2=O)C4)C3)C1 (some centres unmarked) [Compound D213]
	< 0.01	COc1cc(-c2cn(C)c(=O)c3cnc(C(C)(C)C)cc23)cc(OC)c1CN1CCC(CN2CCC3(CC2)CC(Oc2ccc4c(c2)C(=O)N(C2CCC(=O)NC2=O)C4)C3)CC1 (centres unmarked) [Compound D214]
